Converted amounts (≈) assume the structure as drawn. “Also recorded” adds a separate entry of the source.
How the values were obtained:
[1] = Rat PK, single oral gavage; format: in vivo; conditions: single dose 0.1 mg/kg; for Rat AUC / AUC: PEG 300; for half-life: read-out: Rat T1/2 (converted)
[2] = Mouse PK, single oral gavage; conditions: single dose 0.3 mg/kg; for AUC: Mouse AUC; for half-life: Mouse T1/2, oral gavage; for Tmax: Mouse Tmax
[3] = biological target: T1, soluble epoxide hydrolase (sEH) (Homo sapiens, UniProt P34913); assay: Human in vitro Ki and dissociation t1/2 from the enzyme (fluorescence signals); format: binding; conditions: for Human In vitro t1/2 (time for half of the drug being dissociated from the enzyme): based on fluorescence signals
T1 sequence (P34913 1-555): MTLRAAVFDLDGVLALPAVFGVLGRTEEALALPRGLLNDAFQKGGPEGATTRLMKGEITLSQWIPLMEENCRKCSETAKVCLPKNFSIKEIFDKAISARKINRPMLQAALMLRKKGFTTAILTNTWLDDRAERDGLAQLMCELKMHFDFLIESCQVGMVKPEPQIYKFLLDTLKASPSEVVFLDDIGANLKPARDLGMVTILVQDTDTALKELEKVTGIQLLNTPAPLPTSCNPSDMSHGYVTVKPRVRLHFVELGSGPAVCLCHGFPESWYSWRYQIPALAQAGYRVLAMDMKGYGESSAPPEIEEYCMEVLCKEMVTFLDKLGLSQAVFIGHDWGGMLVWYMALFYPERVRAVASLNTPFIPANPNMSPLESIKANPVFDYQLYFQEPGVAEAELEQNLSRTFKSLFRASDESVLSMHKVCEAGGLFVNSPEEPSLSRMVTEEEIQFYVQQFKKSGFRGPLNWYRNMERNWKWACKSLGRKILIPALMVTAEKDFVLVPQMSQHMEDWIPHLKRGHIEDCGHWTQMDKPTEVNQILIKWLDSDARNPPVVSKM

Experimental LogP = format: physicochemical
Solubility in buffer = format: physicochemical; conditions: aqueous buffer; Sodium Phosphate Buffer at pH 7.4
[4] = tested on: Neonatal rat ventricular myocytes (NRVM) expressing 2157del2 JUP; assay: Immunofluorescence of junction proteins in ACM in vitro model; format: cell-based; conditions: for ACM disease features/readouts overall, EET and EEZE / ACM disease features overall (plakoglobin, Cx43, pRelA/p65, TUNEL), sEH inhibitors: Jup2157del2 myocytes; for ACM disease features/readouts overall, EET and EEZE: 10 μM; for ACM disease features overall (plakoglobin, Cx43, pRelA/p65, TUNEL), sEH inhibitors: 2.017 500 nM, 1.045 1 μM, concentration not given for 1,002 and 3.023; for Loss of cell surface signal for Cx43 / Redistribution of junctional plakoglobin to intracellular/nuclear sites: 500 nM 2.017 or 1 μM 1.045, 24 hours
Method: Neonatal rat ventricular myocytes (NRVM) were isolated from the ventricles of 1-day-old Wistar rat pups and plated on collagen-coated plastic chambers. 24 hours following seeding, the cells were transfected with an adenoviral construct expressing a mutant form of plakoglobin known to cause arrhythmogenic cardiomyopathy in patients (2157del2 JUP). […] Non-transfected cultures and cultures transfected with the adenoviral construct only served as negative and positive controls, respectively.
(§1) Immunofluorescence: Cell cultures were fixed with 4% paraformaldehyde and prepared for immunofluorescence analysis as previously described (1). […] Cy3-conjugated goat anti-mouse and anti-rabbit antibodies (Jackson Immunolabs) were used as secondary antibodies and DAPI was used to visualize the nuclei. Immunostained preparations were visualized by confocal microscopy and changes in spatial distribution of signal were assessed qualitatively.

Dsg2^mut/mut mice = assay: LV function in Dsg2mut/mut mice; format: in vivo, mouse; conditions: 3 mg/kg/day for 20 days, vs. untreated mice
NFκB = assay: Nuclear pRelA/p65 immunofluorescence (NFκB activation) in ACM in vitro model; format: cell-based, rat; conditions: 500 nM 2.017 or 1 μM 1.045, 24 hours
Method: (§2) Neonatal rat ventricular myocytes (NRVM) were isolated from the ventricles of 1-day-old Wistar rat pups and plated on collagen-coated plastic chambers. 24 hours following seeding, the cells were transfected with an adenoviral construct expressing a mutant form of plakoglobin known to cause arrhythmogenic cardiomyopathy in patients (2157del2 JUP). 24 hours following transfection, the cells were treated with 500 nM 2.017 or 1 μM 1.045 for an additional 24 hours. Non-transfected cultures and cultures transfected with the adenoviral construct only served as negative and positive controls, respectively.
as §1

[5] = tested on: Neonatal rat ventricular myocytes (NRVM) expressing 2157del2 JUP; assay: TUNEL apoptosis assay in ACM in vitro model; format: cell-based; conditions: 500 nM 2.017 or 1 μM 1.045, 24 hours
Method: as §2
Apoptosis assay: Terminal deoxynucleotidyl transferase dUTP nick end labelling (TUNEL) was performed on NRVM cultures following the manufacturer's instructions (Millipore, S7110). DNA strand breaks generated in apoptotic cells were labelled with fluorescein (green) and nuclei were visualized with DAPI. The number of TUNEL-positive nuclei was counted in 5 randomly selected high-power fields in each culture well and expressed as a percent of total nuclei visualized with DAPI.

[6] = mouse, in vivo, po, 0.3 mg/kg, oral gavage, 20% PEG400 in oleic acid-rich triglyceride
[7] = mouse, in vivo, po, 0.3 mg/kg, Mouse Cmax, oral gavage
[8] = mouse, in vivo, po, 0.3 mg/kg, oral gavage

CCC(=O)N1CCC(NC(=O)Nc2ccc(OC(F)(F)F)c(F)c2)CC1
Cmax [1]: 0.196 ± 0.012 µM
Rat T1/2 [1]: 4.2 ± 0.8 h
Rat Tmax [1]: 4.5 ± 0.5 h
Rat AUC [1]: 2701 ± 357 nM·h
AUC [2, 6]: 20600 nM·h
Cmax [2, 7]: 0.978 µM
half-life ([2]; mouse, in vivo, po, 0.3 mg/kg): 5.4 h
Tmax [2, 8]: 8 h

O=C(Nc1ccc(OC(F)(F)F)c(F)c1)NC1CCN(C(=O)C2CC2)CC1
Cmax [1]: 0.095 ± 0.003 µM
Rat T1/2 [1]: 2.9 ± 0.3 h
Rat Tmax [1]: 4.0 ± 0.1 h
Rat AUC [1]: 1027 ± 65 nM·h
AUC [2, 6]: 5590 nM·h
Cmax [2, 7]: 0.282 µM
half-life ([2]; mouse, in vivo, po, 0.3 mg/kg): 5.1 h
Tmax [2, 8]: 7.6 h

O=C(Nc1ccc(C(F)(F)F)c(F)c1)NC1CCN(C(=O)C2CCOCC2)CC1
Cmax ([1]; rat, in vivo): 0.139 ± 0.009 µM
Tmax ([1]; rat, in vivo): 4 ± 0.4 h
AUC ([1]; rat, in vivo): 1650 ± 42 nM·h
half-life ([1]; rat, in vivo): 4.5 ± 0.4 h
AUC [2, 6]: 98.8 ± 0.2 nM·h

CCOC(=O)N1CCC(NC(=O)Nc2ccc(OC(F)(F)F)c(F)c2)CC1
Cmax ([1]; rat, in vivo): 0.105 ± 0.016 µM
Tmax ([1]; rat, in vivo): 3.7 ± 0.5 h
AUC ([1]; rat, in vivo): 1340 ± 93 nM·h
half-life ([1]; rat, in vivo): 4.7 ± 0.8 h
AUC [2, 6]: ≥ 99.9 nM·h

CC[C@H](C)C(=O)N1CCC(NC(=O)Nc2ccc(C(F)(F)F)nc2)CC1
Human In vitro t1/2 (time for half of the drug being dissociated from the enzyme) [3]: 0.0617 h

O=C(Nc1ccc(OC(F)(F)F)c(F)c1)NC1CCN(C(=O)N2CCOCC2)CC1
Cmax ([1]; rat, in vivo): 0.04 ± 0.002 µM
Tmax ([1]; rat, in vivo): 2.9 ± 0.3 h
AUC ([1]; rat, in vivo): 327 ± 32 nM·h
half-life ([1]; rat, in vivo): 3.6 ± 0.6 h
AUC [2, 6]: 98.2 ± 0.1 nM·h

CC[C@H](C)C(=O)N1CCC(NC(=O)Nc2ccc(OC(F)(F)F)c(Cl)c2)CC1
Human In vitro t1/2 (time for half of the drug being dissociated from the enzyme) [3]: 0.167 h
Cmax ([1]; rat, in vivo): 0.042 ± 0.006 µM
Tmax ([1]; rat, in vivo): 2.1 ± 0.3 h
AUC ([1]; rat, in vivo): 241 ± 12 nM·h
half-life ([1]; rat, in vivo): 2.9 ± 0.5 h
AUC [2, 6]: ≥ 99.9 nM·h

CC[C@H](C)C(=O)N1CCC(CC(=O)Nc2ccc(OC(F)(F)F)cc2F)CC1
Ki [3]: 4.72 nM
Human In vitro t1/2 (time for half of the drug being dissociated from the enzyme) [3]: 0.0783 h
logP (Experimental LogP; read-out: Exp. LogP): 6
solubility (Solubility in buffer): 2.6 µg/mL (≈ 6.43 µM)

O=C(Nc1ccc(C(F)(F)F)c(F)c1)NC1CCN(C(=O)[C@@H]2CCOC2)CC1 (stereo in doubt)
Exp. LogP (Experimental LogP): 3.41

CCCCCC1OC1CCCCCCC/C=C\CCCC(=O)O (centres unmarked) [14,15-EE-5(Z)E, reference compound]
ACM disease features/readouts overall, EET and EEZE [4]: intensified ACM disease readouts; also recorded: intensifies these ACM disease features; also recorded: intensified these ACM features

CCCCCC1OC1C/C=C\C/C=C\C/C=C\CCCC(=O)O (centres unmarked) [14,15-EET, reference compound]
ACM disease features/readouts overall, EET and EEZE [4]: produced potent salutary effects; also recorded: reversed

CC[C@H](C)C(=O)N1CCC(NC(=O)Nc2ccc(OC(F)(F)F)c(F)c2)CC1 [Compound 1.002]
ACM disease features overall (plakoglobin, Cx43, pRelA/p65, TUNEL), sEH inhibitors [4]: showed similar results

CCC(=O)N1CCC(NC(=O)Nc2ccc(OC(F)(F)F)cc2)CC1 [Compound 1.045]
Loss of cell surface signal for Cx43 [4]: reduced loss of cell surface signal for Cx43
Redistribution of junctional plakoglobin to intracellular/nuclear sites [4]: prevented redistribution of junctional plakoglobin; also recorded: prevented translocation of junctional plakoglobin
ACM disease features overall (plakoglobin, Cx43, pRelA/p65, TUNEL), sEH inhibitors [4]: reversed
LV function (Dsg2^mut/mut mice): marked recovery of LV function; also recorded: recovered LV function
Activation of NFκB (nuclear signal for pRelA/p65) (NFκB): prevented activation of NFκB; also recorded: blocked activation of NFκB
Myocyte apoptosis (TUNEL+ nuclei) [5]: greatly diminished myocyte apoptosis

NS(=O)(=O)c1ccc(-n2nc(CCCNC(=O)Nc3ccc(C(F)(F)F)cc3)cc2-c2ccccc2)cc1 [Compound 2.017]
Loss of cell surface signal for Cx43 [4]: reduced loss of cell surface signal for Cx43
Redistribution of junctional plakoglobin to intracellular/nuclear sites [4]: prevented redistribution of junctional plakoglobin; also recorded: prevented translocation of junctional plakoglobin
ACM disease features overall (plakoglobin, Cx43, pRelA/p65, TUNEL), sEH inhibitors [4]: reversed
Activation of NFκB (nuclear signal for pRelA/p65) (NFκB): prevented activation of NFκB; also recorded: blocked activation of NFκB
Myocyte apoptosis (TUNEL+ nuclei) [5]: greatly diminished myocyte apoptosis

O=C(Nc1ccc(OC(F)(F)F)cc1)N[C@H]1CC[C@H](Oc2ccc(C(=O)O)cc2)CC1 [Compound 3.023]
ACM disease features overall (plakoglobin, Cx43, pRelA/p65, TUNEL), sEH inhibitors [4]: showed similar results

CCC(=O)N1CCC(NC(=O)Nc2ccc(OC(F)(F)F)cc2)CC1 [drawing 62]
Cmax ([1]; rat, in vivo): 0.133 ± 0.004 µM
Tmax ([1]; rat, in vivo): 2.3 ± 0.4 h
AUC ([1]; rat, in vivo): 1080 ± 89 nM·h
half-life ([1]; rat, in vivo): 6 ± 0.7 h
Mouse T1/2 ([2]; oral gavage): 12.1 h
Mouse AUC ([2]; oral gavage, 20% PEG400 in oleic acid-rich triglyceride): 10650 nM·h
Cmax ([2]; read-out: Mouse Cmax, oral gavage): 0.495 µM

CC[C@H](C)C(=O)N1CCC(NC(=O)Nc2ccc(OC(F)(F)F)c(F)c2)CC1 [drawing 88]
Exp. LogP (Experimental LogP): 5.98
Cmax [1]: 0.042 ± 0.006 µM
Rat T1/2 [1]: 1.6 ± 0.2 h
Rat Tmax [1]: 1.8 ± 0.1 h
Rat AUC [1]: 208 ± 25 nM·h
AUC [2, 6]: 99.8 ± 0.1 nM·h
Cmax [2, 7]: 0.737 µM
half-life ([2]; mouse, in vivo, po, 0.3 mg/kg): 117 h
Tmax [2, 8]: 1.6 h
